Test results taken from patent EP0323147A2, “1-Aralkyl-1,2-dihydropyrimidine-2-thiones” (SMITHKLINE BECKMAN CORPORATION, priority 1987, dated 1989).
Marks after values point to notes of the source that are not given here. Blank lines part the entries; values can stand above or below the molecule they belong to.

Key:
[1] = literature, Teresawa et al., Japan Cir. J. 35, 339 (1971); cited from earlier work
[2] = target: T1, DBH (Homo sapiens, UniProt P09172); experiment: in vitro DBH inhibition, conversion of tyramine to octopamine in the presence of DBH; type: biochemical; conditions: for percent inhibition: at 10⁻⁵ M compound concentration, IC₅₀ not determined
T1 sequence (P09172 1-617): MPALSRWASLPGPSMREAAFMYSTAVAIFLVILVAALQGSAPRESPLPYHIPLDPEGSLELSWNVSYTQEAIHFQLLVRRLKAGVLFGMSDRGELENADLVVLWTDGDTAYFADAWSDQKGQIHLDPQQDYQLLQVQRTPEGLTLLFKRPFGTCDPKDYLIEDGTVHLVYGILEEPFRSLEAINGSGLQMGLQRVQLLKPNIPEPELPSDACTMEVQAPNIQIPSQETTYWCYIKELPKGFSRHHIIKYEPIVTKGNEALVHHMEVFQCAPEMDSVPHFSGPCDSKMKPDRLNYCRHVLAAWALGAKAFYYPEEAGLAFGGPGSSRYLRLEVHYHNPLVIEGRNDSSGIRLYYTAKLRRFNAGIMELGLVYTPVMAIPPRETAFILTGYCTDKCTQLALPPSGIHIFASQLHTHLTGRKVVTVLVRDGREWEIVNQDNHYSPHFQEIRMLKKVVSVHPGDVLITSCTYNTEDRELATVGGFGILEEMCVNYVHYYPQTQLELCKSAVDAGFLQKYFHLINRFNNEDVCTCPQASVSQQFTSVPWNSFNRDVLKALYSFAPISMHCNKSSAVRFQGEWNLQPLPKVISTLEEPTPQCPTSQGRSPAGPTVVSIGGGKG
Procedure: Because the compounds of structure (I) inhibit DBH activity they have therapeutic value as diuretic, natriuretic, cardiotonic, antihypertensive, and vasodilatoragents, as well as antiulcerogenic and anti-Parkinson agents. Listed in Table I are the compounds of the invention that were tested for in vitro DBH inhibition by a standard procedure for assaying conversion of tyramine to octopamine in the presence of DBH. J.J. Pisano, et al., Biochim. Biophys. Acta, 43, 566-568 (1960). Octopamine was assayed following sodium periodate oxidation to p-hydroxy-benzaldehyde by measuring spectrophotometric absorbance at 330 nm. In Table I, inhibition is given in micromolar concentration of compound at which DBH activity was halved (IC₅₀). […]

[3] = system: spontaneously hypertensive rats; experiment: mean arterial blood pressure in spontaneously hypertensive rats after oral dosing; type: in vivo; conditions: 50 mg/kg orally, compared to vehicle-treated controls
Procedure: Further, spontaneously hypertensive rats were treated with a suspension or solution of 1-(3,5-fluorobenzyl)-1,2,-dihydropyrimidine-2-thione hydrochloride at a dose of 50 mg/kg orally and mean arterial blood pressure was monitored for 260 minutes using indwelling cannulae in the tail arteries. […] Maximal blood pressure reduction was approximately 25 to 30 mm Hg.

SMILES: CCCCc1ccc(C(=O)O)nc1 [fusaric acid]
toxic effects [1]: hepatotoxic

percent inhibition [2]: 15%^a
SMILES: Cl.Fc1cccc(Cn2cccnc2=S)c1 [1-(3-Fluorobenzyl)-1,2-dihydropyrimidine 2-thione Hydrochloride]

IC50 ([2]; concentration of compound at which DBH activity was halved, read-out: DBH IC₅₀): 2.8 µM
SMILES: Cl.Fc1cc(F)cc(Cn2cccnc2=S)c1 [1-(3,5-Difluorobenzyl)-1,2-dihydropyrimidine 2-thione Hydrochloride]
time after treatment to significant blood pressure reductions [3]: ≤ 30 min

percent inhibition [2]: 5%^a
SMILES: S=c1ncccn1Cc1ccccc1 [1-benzyl-1,2-dihydropyrimidine-2-thione, 1-Benzyl-1,2-dihydropyrimidine-2 thione]
